Read-outs that look alike come from different tables or passages of the source.
Experiments:
CYP3A4 [1] = target: T1, CYP3A4 (Homo sapiens, UniProt P08684); experiment: CYP450 inhibition CDNA-CYP3A4-BFC; details: for Cyp450 inhibition: CDNA-CYP3A4-BFC (% inhibition): 10 μM test compound, substrate BFC 150 μM, 30 min; for inhibition at 30 min, 10 μM: human, E. coli expressed CYP3A4, pH 7.4, probe BFC 150 μM
Text: (§1) Assay 4: CYP450 Inhibition

[2] = Metabolic stability of test compounds (HLM15'); format: in vitro ADME, human; details: for recovery at 15 min, 5 μM: pH 7.4, read-out: Metabolic stability (HLM, % recovery after 15')
CYP2D6 [3] = target: T2, CYP2D6 (Homo sapiens, UniProt P10635); experiment: CYP450 inhibition CDNA-CYP2D6-AMMC; details: 10 μM test compound, substrate AMMC 3 μM, 45 min
CYP2C9 = CYP2C9 (Homo sapiens, UniProt P11712); experiment: in vitro; details: for inhibition at 30 min, 10 μM: human, pH 7.4
Text: as §1

CYP3A4 [4] = target: T1, CYP3A4; experiment: in vitro; details: for Cyp450 inhibition: CDNA-CYP3A4-DBF (% inhibition): 10 μM test compound, substrate DBF 1 μM, 10 min; for inhibition at 10 min, 10 μM: human, pH 7.4
Text: as §1

CYP1A2 [5] = target: T3, CYP1A2 (Homo sapiens, UniProt P05177); experiment: CYP450 inhibition CDNA-CYP1A2-CEC; details: 10 μM test compound, substrate CEC 5 μM, 15 min
T3 sequence (P05177 1-516): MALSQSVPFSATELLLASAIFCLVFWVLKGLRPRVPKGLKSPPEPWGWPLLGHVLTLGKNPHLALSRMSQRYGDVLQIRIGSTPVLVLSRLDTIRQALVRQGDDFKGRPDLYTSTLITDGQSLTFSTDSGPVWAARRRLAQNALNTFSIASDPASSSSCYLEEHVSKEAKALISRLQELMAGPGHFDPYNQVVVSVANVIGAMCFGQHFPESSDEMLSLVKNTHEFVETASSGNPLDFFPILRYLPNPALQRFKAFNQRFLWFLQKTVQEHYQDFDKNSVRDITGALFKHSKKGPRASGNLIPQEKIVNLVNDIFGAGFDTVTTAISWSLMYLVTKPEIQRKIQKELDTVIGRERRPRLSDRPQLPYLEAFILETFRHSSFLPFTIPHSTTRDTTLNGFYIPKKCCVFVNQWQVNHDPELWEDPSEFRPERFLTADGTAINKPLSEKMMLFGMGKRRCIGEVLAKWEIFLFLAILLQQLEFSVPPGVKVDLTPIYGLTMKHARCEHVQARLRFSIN

MT4 CMV-EGFP cells = experiment: Toxicity, mock-infected MT4 CMV-EGFP cells; format: cell-based, human
CYP2C19 [6] = target: T4, CYP2C19 (Homo sapiens, UniProt P33261); experiment: CYP450 inhibition CDNA-CYP2C19-CEC; details: 10 μM test compound, substrate CEC 25 μM, 30 min
CYP3A4 [7] = target: T1, CYP3A4; experiment: CYP450 inhibition CDNA-CYP3A4-BQ; details: for Cyp450 inhibition: CDNA-CYP3A4-BQ (% inhibition): 10 μM test compound, substrate BQ 60 μM, 30 min; for inhibition at 30 min, 10 μM: human, E. coli expressed CYP3A4, pH 7.4, probe BQ 60 μM
Text: as §1

[8] = system: wild-type HIV-1IIIB strain; experiment: Antiviral activity, MT4 LTR-EGFP cellular assay; format: cell-based; set-up: key to Antiviral activity IIIB (pEC50): pEC50 = -log10(EC50); details: wild-type HIV-1 IIIB, MT4 LTR-EGFP cells, three days after infection; for EC50: Human immunodeficiency virus 1, 72 h, read-out: Antiviral activity IIIB (pEC50) (converted)
[9] = In vivo boosting capacity: pharmacokinetics of darunavir in Beagle dogs; details: fed male Beagle dogs, booster 5 mg/kg oral 15 min before darunavir 5 mg/kg oral, average of 3 dogs
Method: Oral dosing was done by gavage. At all times, the dogs were given free and continuous access to water. Blood samples were collected from the jugular vein at 0 (=predose), 0.5, 1, 2, 4, 7, and 24 h after dose administration. The samples were centrifuged at 1900×g for 10 min at 5° C. to allow plasma separation. Separated plasma was stored in the freezer within two hours after blood sampling. At all times, blood and plasma samples were placed on melting ice and protected from light. […] Values listed are the average of 3 dogs.

[10] = Toxicity, mock-infected MT4 CMV-EGFP cells; format: cell-based, human; details: human, mock-infected MT4 CMV-EGFP cells; read-out: Toxicity MT4 (pCC50) (converted)
CYP2D6 [11] = target: T2, CYP2D6; experiment: in vitro; details: pH 7.4
CYP1A2 [12] = target: T3, CYP1A2; experiment: in vitro; details: E. coli expressed CYP1A2, pH 7.4, probe CEC 5 μM
CYP2C19 [13] = target: T4, CYP2C19; experiment: in vitro; details: E. coli expressed CYP2C19, pH 7.4, probe CEC 25 μM
[14] = human liver microsomes 1 mg/ml, 5 μM test compound, 15 min
[15] = mock-infected MT4 CMV-EGFP cells

Chain of CYP2C9 (P11712 whole entry): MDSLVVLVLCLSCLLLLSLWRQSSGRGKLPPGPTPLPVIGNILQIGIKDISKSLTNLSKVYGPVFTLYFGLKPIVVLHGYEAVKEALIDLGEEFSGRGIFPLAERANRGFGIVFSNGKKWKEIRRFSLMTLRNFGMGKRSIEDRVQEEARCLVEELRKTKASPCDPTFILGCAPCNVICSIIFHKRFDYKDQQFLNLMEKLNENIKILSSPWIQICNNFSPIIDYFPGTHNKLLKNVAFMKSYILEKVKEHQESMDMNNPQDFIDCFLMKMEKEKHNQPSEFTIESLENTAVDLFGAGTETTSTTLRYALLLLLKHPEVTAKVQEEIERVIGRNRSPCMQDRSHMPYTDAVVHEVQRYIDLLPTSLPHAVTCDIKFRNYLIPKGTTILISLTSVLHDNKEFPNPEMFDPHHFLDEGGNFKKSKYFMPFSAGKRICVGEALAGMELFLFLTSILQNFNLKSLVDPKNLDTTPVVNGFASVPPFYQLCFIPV
T2 sequence (P10635 whole entry): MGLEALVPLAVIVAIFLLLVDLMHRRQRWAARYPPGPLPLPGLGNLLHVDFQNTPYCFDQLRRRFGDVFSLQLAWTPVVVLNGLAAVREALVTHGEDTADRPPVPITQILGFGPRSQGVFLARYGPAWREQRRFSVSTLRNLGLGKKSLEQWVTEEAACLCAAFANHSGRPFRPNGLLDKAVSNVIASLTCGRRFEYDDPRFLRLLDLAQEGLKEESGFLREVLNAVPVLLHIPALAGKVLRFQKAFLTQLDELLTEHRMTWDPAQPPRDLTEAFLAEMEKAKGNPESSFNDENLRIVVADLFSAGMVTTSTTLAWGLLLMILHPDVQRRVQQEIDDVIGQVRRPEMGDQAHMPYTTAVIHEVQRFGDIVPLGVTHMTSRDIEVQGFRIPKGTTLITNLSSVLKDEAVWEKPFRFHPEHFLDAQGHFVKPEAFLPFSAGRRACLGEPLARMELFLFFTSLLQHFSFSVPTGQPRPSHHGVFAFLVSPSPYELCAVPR
T4 sequence (P33261 whole entry): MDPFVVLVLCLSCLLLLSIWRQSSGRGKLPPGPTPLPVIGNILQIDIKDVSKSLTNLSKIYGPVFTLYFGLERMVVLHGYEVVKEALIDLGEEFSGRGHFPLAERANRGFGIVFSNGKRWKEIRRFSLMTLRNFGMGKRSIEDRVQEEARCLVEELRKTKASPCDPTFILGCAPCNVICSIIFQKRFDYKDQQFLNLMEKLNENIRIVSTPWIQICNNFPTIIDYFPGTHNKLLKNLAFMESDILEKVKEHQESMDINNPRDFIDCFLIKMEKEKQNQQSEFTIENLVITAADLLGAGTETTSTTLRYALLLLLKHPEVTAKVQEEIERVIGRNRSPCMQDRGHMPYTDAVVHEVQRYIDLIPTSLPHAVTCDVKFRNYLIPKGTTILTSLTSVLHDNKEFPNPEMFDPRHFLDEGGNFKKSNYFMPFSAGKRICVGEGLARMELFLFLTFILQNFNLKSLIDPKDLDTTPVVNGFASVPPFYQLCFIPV
T1 sequence (P08684 whole entry): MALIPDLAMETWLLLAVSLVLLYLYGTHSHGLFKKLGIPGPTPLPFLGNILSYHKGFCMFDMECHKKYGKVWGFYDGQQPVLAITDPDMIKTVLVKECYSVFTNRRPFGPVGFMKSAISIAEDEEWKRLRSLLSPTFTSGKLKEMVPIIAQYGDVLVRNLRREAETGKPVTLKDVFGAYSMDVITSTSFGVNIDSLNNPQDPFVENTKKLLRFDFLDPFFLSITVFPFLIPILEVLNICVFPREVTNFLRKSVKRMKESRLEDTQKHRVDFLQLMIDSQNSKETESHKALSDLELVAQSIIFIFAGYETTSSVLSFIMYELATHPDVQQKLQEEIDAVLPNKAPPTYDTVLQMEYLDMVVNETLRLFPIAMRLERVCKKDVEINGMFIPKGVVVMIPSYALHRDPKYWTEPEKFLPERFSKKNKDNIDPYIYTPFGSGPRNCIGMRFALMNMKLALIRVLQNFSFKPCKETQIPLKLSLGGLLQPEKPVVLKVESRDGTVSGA

| Compound | inhibition at 30 min, 10 μM (CYP3A4 [1]) | recovery at 15 min, 5 μM [2, 14] | inhibition at 30 min, 10 μM (CYP2C9) | inhibition at 10 min, 10 μM (CYP3A4 [4]) | inhibition at 45 min, 10 μM (CYP2D6 [11]) | inhibition at 15 min, 10 μM (CYP1A2 [12]) | inhibition at 30 min, 10 μM (CYP2C19 [13]) | inhibition at 30 min, 10 μM (CYP3A4 [7]) | EC50 [8] | Cyp450 inhibition: CDNA-CYP3A4-BFC (% inhibition) (CYP3A4 [1]) | Metabolic stability (HLM, % recovery after 15') [2, 14] | Cyp450 inhibition: CDNA-CYP2D6-AMMC (% inhibition) (CYP2D6 [3]) | Cyp450 inhibition: CDNA-CYP2C9-MFC (% inhibition) (CYP2C9) | Cyp450 inhibition: CDNA-CYP3A4-DBF (% inhibition) (CYP3A4 [4]) | Cyp450 inhibition: CDNA-CYP1A2-CEC (% inhibition) (CYP1A2 [5]) | Toxicity MT4 (pCC50) (MT4 CMV-EGFP cells; [15]) | Cyp450 inhibition: CDNA-CYP2C19-CEC (% inhibition) (CYP2C19 [6]) | Cyp450 inhibition: CDNA-CYP3A4-BQ (% inhibition) (CYP3A4 [7]) | Antiviral activity IIIB (pEC50) [8] | CC50 at 3 days [10] | further results |
| --- | --- | --- | --- | --- | --- | --- | --- | --- | --- | --- | --- | --- | --- | --- | --- | --- | --- | --- | --- | --- | --- |
| CCNc1nc2ccc(C(=O)N(CC(C)C)C[C@@H](O)[C@H](Cc3ccccc3)NC(=O)OCc3cncs3)cc2o1 [Compound C27] |  |  |  |  |  |  |  |  |  | 94% | 52% | 70% | 94% | 94% | 10% | <4.00 | 79% | 80% | =4.07 |  |  |
| CC(C)CN(C[C@@H](O)[C@H](Cc1ccccc1)NC(=O)OCc1cncs1)C(=O)c1ccc2ncsc2c1 [Compound C7] |  |  |  |  |  |  |  |  |  |  | 65% |  | 99% |  |  |  |  |  | =4.02 |  | Toxicity MT4 (pCC50) (MT4 CMV-EGFP cells): =4.00; C7h of darunavir [9]: 134 ng/mL |
| CCNc1nc2ccc(C(=O)N(C[C@@H](O)[C@H](Cc3ccccc3)NC(=O)OCc3cncs3)CC(C)(C)O)cc2o1 [Compound C44] |  |  |  |  |  |  |  |  |  |  | 70% | 38% | 95% |  | 0% | <4.00 | 62% |  | <4.00 |  |  |
| CC(C)CN(C[C@@H](O)[C@H](Cc1ccccc1)NC(=O)OCc1cncs1)C(=O)c1ccc2nc(-c3ccncc3)oc2c1 [Compound C48] |  |  |  |  |  |  |  |  |  | 97% |  | 74% | 99% | 98% | 18% | <4.00 | 94% | 85% | <4.00 |  | Metabolic stability (HLM, % recovery after 15') [2]: 91% |
| CC(C)CN(C[C@@H](O)[C@H](Cc1ccccc1)NC(=O)OCc1cncs1)C(=O)c1ccc2nc(NC3CCN(C)CC3)oc2c1 [Compound C25] |  |  |  |  |  |  |  |  |  | 77% | 8% | 67% | 12% | 76% | 0% | <4.00 | 7% | 71% | <4.00 |  |  |
| CC(C)CN(C[C@@H](O)[C@H](Cc1ccccc1)NC(=O)OCc1cncs1)C(=O)c1ccc2nc(N3CCN(C)CC3)oc2c1 [Compound C15, Thiazol-5-ylmethyl (2S,3R)-3-hydroxy-4-(N-isobutyl-2-(4-methylpiperazin-1-yl)benzo[d]oxazole-6-carboxamido)-1-phenylbutan-2-ylcarbamate] | 98% | 25% | 96% | 93% | 97% | 18% | 67% | 79% | > 100 µM |  |  |  |  |  |  |  |  |  |  | > 100 µM |  |
| CC(C)CN(C[C@@H](O)[C@H](Cc1ccccc1)NC(=O)OCc1cncs1)C(=O)c1ccc2nc(N(C)C)oc2c1 [Compound C4] |  |  |  |  |  |  |  |  |  |  | 67% | 26% | 94% |  | 7% | =4.32 | 82% |  | =4.33 |  |  |
| CCN(C[C@@H](O)[C@H](Cc1ccccc1)NC(=O)OCc1cncs1)C(=O)c1ccc2nc(N(C)CC)oc2c1 [Compound C29, Thiazol-5-ylmethyl (2S,3R)-4-(N-ethyl-2-(ethyl(methyl)amino)benzo[d]-oxazole-6-carboxamido)-3-hydroxy-1-phenylbutan-2-ylcarbamate] | 90% | 58% | 99% | 94% | 32% | 6% | 97% | 77% | > 100 µM |  |  |  |  |  |  |  |  |  |  | 81.3 µM |  |

More lines, main results first:

| inhibition at 30 min, 10 μM (CYP3A4 [1]) | recovery at 15 min, 5 μM [2, 14] | inhibition at 30 min, 10 μM (CYP2C9) | inhibition at 10 min, 10 μM (CYP3A4 [4]) | inhibition at 45 min, 10 μM (CYP2D6 [11]) | inhibition at 15 min, 10 μM (CYP1A2 [12]) | inhibition at 30 min, 10 μM (CYP2C19 [13]) | inhibition at 30 min, 10 μM (CYP3A4 [7]) | EC50 [8] | Compound | Cyp450 inhibition: CDNA-CYP3A4-BFC (% inhibition) (CYP3A4 [1]) | Metabolic stability (HLM, % recovery after 15') [2, 14] | Cyp450 inhibition: CDNA-CYP2D6-AMMC (% inhibition) (CYP2D6 [3]) | Cyp450 inhibition: CDNA-CYP2C9-MFC (% inhibition) (CYP2C9) | Cyp450 inhibition: CDNA-CYP3A4-DBF (% inhibition) (CYP3A4 [4]) | Cyp450 inhibition: CDNA-CYP1A2-CEC (% inhibition) (CYP1A2 [5]) | Toxicity MT4 (pCC50) (MT4 CMV-EGFP cells; [15]) | Cyp450 inhibition: CDNA-CYP2C19-CEC (% inhibition) (CYP2C19 [6]) | Cyp450 inhibition: CDNA-CYP3A4-BQ (% inhibition) (CYP3A4 [7]) | Antiviral activity IIIB (pEC50) [8] | CC50 at 3 days [10] | further results |
| --- | --- | --- | --- | --- | --- | --- | --- | --- | --- | --- | --- | --- | --- | --- | --- | --- | --- | --- | --- | --- | --- |
| 81% | 57% | 92% | 93% | 12% | 4% | 75% | 72% | > 100 µM | CC(C)CN(C[C@@H](O)[C@H](Cc1ccccc1)NC(=O)OCc1cncs1)C(=O)c1ccc2ncn(C)c2c1 [Compound C8, Thiazol-5-ylmethyl (2S,3R)-3-hydroxy-4-(N-isobutyl-1-methyl-1H-benzo[d]-imidazole-6-carboxamido)-1-phenylbutan-2-ylcarbamate] |  |  |  |  |  |  |  |  |  |  | > 100 µM |  |
| 95% | 67% | 93% | 92% | 77% | 7% | 81% | 76% | > 100 µM | CC(C)CN(C[C@@H](O)[C@H](Cc1ccccc1)NC(=O)OCc1cncs1)C(=O)c1ccc2ncoc2c1 [Compound C38, Thiazol-5-ylmethyl (2S,3R)-3-hydroxy-4-(N-isobutylbenzo[d]oxazole-6-carboxamido)-1-phenylbutan-2-ylcarbamate] |  |  |  |  |  |  |  |  |  |  | > 100 µM |  |

— patent US8350048B2, “Amide compounds as boosters of antivirals” (Janssen R&D Ireland, priority 2007, dated 2013)
